Measurements from PubChem BioAssay AID602167 (The Scripps Research Institute Molecular Screening Center, 2012).
Active and inactive are the calls of the source. How the calls were made is not given here.

molecular target: transactivating tegument protein VP16 (Human herpesvirus 1), as a GAL4-VP16 activation-domain luciferase reporter; test: VP16 transactivation inhibitor potency, dose response, counter-screen for SRC3 inhibitor project, cell-based, luminescence, high throughput, SRC3 series (AID 602167); conditions: VP16 transactivation luciferase reporter cells

Question: Which IC50 does the source give for `NC(=S)N/N=C1\CCOc2ccc(Cl)cc21` here?
Answer: Its IC50 is “inactive”.

Question: Which IC50 does the source give for `O=C(Nc1cccc(C(F)(F)F)c1)Nc1nnc([C@@H]2C[C@H](O)[C@@H](CO)O2)s1` here?
Answer: Its IC50 is 6.98 µM.

Question: For `CCC(=O)c1ccc(O)c(CC=C(C)C)c1`, which IC50 is on record?
Answer: Its IC50 is 9.84 µM.

Question: How did the IC50 turn out when `CCOc1ccccc1-n1c(SCC(=O)Nc2ccccc2C(=O)O)nc2ccccc2c1=O` was run?
Answer: Its IC50 is “inactive”.

Question: How did the IC50 turn out when `Cc1ccc2occ(/C=N/NC(=O)[C@@H](N)Cc3ccccc3)c(=O)c2c1` was run?
Answer: Its IC50 is 9.66 µM.

Question: `CNC(=O)c1cccn(Cc2ccc(C(F)(F)F)cc2)c1=O` was tested. Which IC50 did it give?
Answer: Its IC50 is > 35.8 µM (inactive).
